Measured values taken from PubChem BioAssay AID1963867 (Molecular Pharmacology Branch, DTP, NCI, 2024).

System: KRAS-mutant PDC tumor spheroid with HUVEC/MSC, viability
Test: Anticancer human tumor 327498-153-R-J2-PDC patient-derived uterine carcinosarcoma cell line growth inhibition [KRAS2]
Conditions: for IC50: curve of first compound; for viability, T/C: stronger effect = lower value
Outline: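 Combination screen of spheroid viability in tumor-cell co-cultures with endothelial (HUVEC) and mesenchymal stem cell stroma. Each agent was tested in half-log dilutions, topping at clinical Cmax or at 10 microM without a known Cmax.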

[1] = second compound 0.1 µM, first compound 0.0316 µM
[2] = second compound 0.1 µM, first compound 0.1 µM
[3] = second compound 0.1 µM, first compound 0.316 µM
[4] = second compound 0.1 µM, first compound 1 µM
[5] = second compound 0.1 µM, first compound 3.16 µM
[6] = second compound 0.1 µM, first compound 10 µM
[7] = second compound 0.316 µM, first compound 0.0316 µM
[8] = second compound 0.316 µM, first compound 0.1 µM
[9] = second compound 0.316 µM, first compound 0.316 µM
[10] = second compound 0.316 µM, first compound 1 µM
[11] = second compound 0.316 µM, first compound 3.16 µM
[12] = second compound 0.316 µM, first compound 10 µM
[13] = second compound 1 µM, first compound 0.0316 µM
[14] = second compound 1 µM, first compound 0.1 µM
[15] = second compound 1 µM, first compound 0.316 µM
[16] = second compound 1 µM, first compound 1 µM
[17] = second compound 1 µM, first compound 3.16 µM
[18] = second compound 1 µM, first compound 10 µM
[19] = second compound 3.16 µM, first compound 0.0316 µM
[20] = second compound 3.16 µM, first compound 0.1 µM
[21] = second compound 3.16 µM, first compound 0.316 µM
[22] = second compound 3.16 µM, first compound 1 µM
[23] = second compound 3.16 µM, first compound 3.16 µM
[24] = second compound 3.16 µM, first compound 10 µM
[25] = second compound 10 µM, first compound 0.0316 µM
[26] = second compound 10 µM, first compound 0.1 µM
[27] = second compound 10 µM, first compound 0.316 µM
[28] = second compound 10 µM, first compound 1 µM
[29] = second compound 10 µM, first compound 3.16 µM
[30] = second compound 10 µM, first compound 10 µM
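Also: spheroids exposed to agents for seven days before reading.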
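For viability, T/C in this document: 100% = DMSO vehicle wells so lower means fewer viable cells.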

SMILES	IC50 (second compound 0.1 µM) [nM]	IC50 (second compound 0.316 µM) [nM]	IC50 (second compound 1 µM) [nM]	IC50 (second compound 3.16 µM) [nM]	viability, T/C [1] [%]	viability, T/C [2] [%]	viability, T/C [3] [%]	viability, T/C [4] [%]	viability, T/C [5] [%]	viability, T/C [7] [%]	viability, T/C [8] [%]	viability, T/C [9] [%]	viability, T/C [10] [%]	viability, T/C [11] [%]	viability, T/C [13] [%]	viability, T/C [14] [%]	viability, T/C [15] [%]	viability, T/C [16] [%]	viability, T/C [17] [%]	viability, T/C [19] [%]	other results
COC(=O)c1ccc2c(C(=Nc3ccc(N(C)C(=O)CN4CCN(C)CC4)cc3)c3ccccc3)c(O)[nH]c2c1 + CC1OCC2(CCN(c3cnc(Sc4ccnc(N)c4Cl)c(N)n3)CC2)C1N	561	157	< 31.6	< 31.6	76	68.8	58	43.8	26	57.1	50.7	44.7	34.5	16.2	40.4	41.9	33.3	20.6	14.5	36	IC50 (second compound 10 µM): < 31.6 nM; viability, T/C [6]: 26.8%; viability, T/C [12]: 18.8%; viability, T/C [18]: 11.4%; viability, T/C [20]: 33.4%; viability, T/C [21]: 23.5%; viability, T/C [22]: 14.1%; viability, T/C [23]: 11%; viability, T/C [24]: 10.1%; viability, T/C [25]: 28%; viability, T/C [26]: 27.9%; viability, T/C [27]: 20.5%; viability, T/C [28]: 13.3%; viability, T/C [29]: 11.4%; viability, T/C [30]: 9.36%
CC(=O)OC12COC1CC(O)C1(C)C(=O)C(O)C3=C(C)C(OC(=O)C(O)C(NC(=O)OC(C)(C)C)c4ccccc4)CC(O)(C(OC(=O)c4ccccc4)C21)C3(C)C (stereo not drawn) + C=CC(=O)N1CCN(c2nc(OCC3CCCN3C)nc3c2CCN(c2cccc4cccc(C)c24)C3)CC1CC#N	< 10	< 10	< 10	< 10	4.17	3.96	4.52	6.93	8.74	4.31	4.23	4.71	5.82	7.76	3.43	3.95	3.86	5.54	4.84	6.27	IC50 (second compound 0.0316 µM): < 10 nM; viability, T/C (second compound 0.0316 µM, first compound 0.01 µM): 6.75%; viability, T/C (second compound 0.0316 µM, first compound 0.0316 µM): 5.33%; viability, T/C (second compound 0.0316 µM, first compound 0.1 µM): 6.51%; viability, T/C (second compound 0.0316 µM, first compound 0.316 µM): 6.19%; viability, T/C (second compound 0.0316 µM, first compound 1 µM): 7.48%; viability, T/C (second compound 0.0316 µM, first compound 3.16 µM): 10.1%; viability, T/C (second compound 0.1 µM, first compound 0.01 µM): 5.53%; viability, T/C (second compound 0.316 µM, first compound 0.01 µM): 4.9%; viability, T/C (second compound 1 µM, first compound 0.01 µM): 4.4%; viability, T/C (second compound 3.16 µM, first compound 0.01 µM): 7.35%; viability, T/C [20]: 5.84%; viability, T/C [21]: 6.15%; viability, T/C [22]: 7.24%; viability, T/C [23]: 10.6%
CCNC(=O)CC1N=C(c2ccc(Cl)cc2)c2cc(OC)ccc2-n2c(C)nnc21 (stereo not drawn) + CNCc1ccccc1-c1csc(C(C)Nc2nc(C)nc3cc(OC)c(OC)cc23)c1	1390	478	382	< 31.6	88	76.8	59	55.8	43.4	69.5	69.6	53.4	41	36.3	77.6	64	52.6	40.3	33.1	1.88	IC50 (second compound 10 µM): < 31.6 nM; viability, T/C [6]: 34%; viability, T/C [12]: 29.8%; viability, T/C [18]: 28%; viability, T/C [20]: 1.54%; viability, T/C [21]: 0.18%; viability, T/C [22]: 1.98%; viability, T/C [23]: 0.12%; viability, T/C [24]: 0.21%; viability, T/C [25]: 1.35%; viability, T/C [26]: 1.7%; viability, T/C [27]: 0.26%; viability, T/C [28]: 0.21%; viability, T/C [29]: 0.2%; viability, T/C [30]: 0.28%
COc1cc2nccc(Oc3ccc(NC(=O)C4(C(=O)Nc5ccc(F)cc5)CC4)cc3)c2cc1OC	–	–	–	–	–	–	–	–	–	–	–	–	–	–	–	–	–	–	–	–	viability, T/C (compound 0.0316 µM): 95.8% [middle of 5 runs]; viability, T/C (compound 0.1 µM): 94.9% [middle of 5 runs]; viability, T/C (compound 0.316 µM): 97.2% [middle of 5 runs]
